Laboratory results published in PubChem BioAssay (NCI).
Where “and” joins values, the source holds several entries; their conditions need not be identical. Equal entries are not always repeated.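 These data come from cells grown in 96-well plates and exposed to compound for 48 hours at five concentrations. Here, GI50 denotes the concentration required for 50% inhibition of growth. TGI: total growth inhibition.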

Assays:
Test in all cases: DTP human tumour cell line panel, 48 h
CAKI-1 renal = test system: CAKI-1 renal
CCRF-CEM leukemia = test system: CCRF-CEM leukemia
EKVX NSCLC = test system: EKVX NSCLC
HS 578T breast = test system: HS 578T breast
LOX IMVI melanoma = test system: LOX IMVI melanoma
NCI-H226 lung = test system: NCI-H226 lung
SF-539 CNS = test system: SF-539 CNS
SK-MEL-2 melanoma = test system: SK-MEL-2 melanoma
SNB-19 CNS = test system: SNB-19 CNS
UACC-62 melanoma = test system: UACC-62 melanoma

SMILES | GI50 (CAKI-1 renal) | TGI (CAKI-1 renal) | GI50 (CCRF-CEM leukemia) | TGI (CCRF-CEM leukemia) | GI50 (EKVX NSCLC) | TGI (EKVX NSCLC) | GI50 (HS 578T breast) | TGI (HS 578T breast) | GI50 (LOX IMVI melanoma) | TGI (LOX IMVI melanoma) | GI50 (NCI-H226 lung) | TGI (NCI-H226 lung) | GI50 (SF-539 CNS) | TGI (SF-539 CNS) | GI50 (SK-MEL-2 melanoma) | TGI (SK-MEL-2 melanoma) | GI50 (SNB-19 CNS) | TGI (SNB-19 CNS) | GI50 (UACC-62 melanoma) | TGI (UACC-62 melanoma)
CCN(CC)CCn1nc2c3c(cccc3c1=O)-c1ccccc1-2 | 1.39 µM | > 50 µM | 2.08 µM | 45.9 µM | 2.33 µM | 38.7 µM | 11.2 µM | > 50 µM | 1.31 µM | 4.74 µM | 1.18 µM | 2.58 µM | 2.78 µM | 11.7 µM | 3.79 µM | 13 µM | 2.63 µM | > 50 µM | 1.98 µM | 7.81 µM
CCN(CC)c1ccc(/C=C2/NC(=O)NC2=O)cc1 | 6.19 µM | > 100 µM | 9.66 µM | > 100 µM | 0.753 µM | > 100 µM | 1.23 µM | > 28 µM | 9.73 µM | > 100 µM | > 95.2 µM | > 100 µM | 5.57 µM | 53.6 µM | 3.03 µM | > 31.4 µM | 15.5 µM | > 100 µM | 1.8 µM | 12.9 µM
CCCCCCCC(=O)O[C@H]1[C@H]2[C@@H](CC1(C)C)C(=O)[C@]13O[C@H]1C(=O)[C@]1(CO1)[C@]23C |  | 5.82 µM and 5.58 µM | 0.593 µM | 3.57 µM and 1.58 µM | 36.9 µM | 62.1 µM and 10 µM |  | > 100 µM | 2.16 µM | 5.63 µM and 5.48 µM | 20.2 µM | 26.8 µM and 48.9 µM | 7.72 µM | 12.7 µM and 21.3 µM | 22.7 µM | 45.5 µM and 8.57 µM |  | 44.9 µM and 45.9 µM | 6.47 µM | 20.8 µM and 7.29 µM
CC[C@@]1(O)C(=O)N(CCN(C)C)Cc2c1cc1n(c2=O)Cc2cc3ccccc3nc2-1 | 4.27 µM | > 100 µM | 4.74 µM | > 100 µM | > 67.9 µM | > 100 µM | > 100 µM | > 100 µM | 6.19 µM | > 50.7 µM | 64.3 µM | > 100 µM | 3.77 µM | 13.1 µM | > 100 µM | > 100 µM | > 24.9 µM | > 100 µM | 7.2 µM | > 100 µM
CC(=O)O[C@H]1Cc2c([nH]c3ccccc23)[C@@H](c2ccc(Cl)cc2)N1C(=O)CCNC(C)(C)C | 2.77 µM | 7.01 µM | 5.12 µM | 14.8 µM | 3.74 µM | 7.9 µM | 3.76 µM | 13 µM | 2.43 µM | 6.72 µM | 2.11 µM | 7.15 µM | 4.69 µM | 9.12 µM | 4.93 µM | 9.88 µM | 4.64 µM | 9.06 µM | 3.92 µM | 8.28 µM
CCn1c(-c2nonc2N)nc2c(C#CC(C)(C)O)ncc(OCC3CCNCC3)c21 | 17.2 µM | > 25 µM | 4.5 µM | > 25 µM | > 25 µM | > 25 µM | 3.83 µM | 15.4 µM | 7.04 µM | > 25 µM | > 15.2 µM | > 25 µM | 3.36 µM | > 20.7 µM | 11.7 µM | > 25 µM | 10.6 µM | > 25 µM | 8.02 µM | > 25 µM
Cc1cncc2cccc(S(=O)(=O)N3CCCNC[C@@H]3C)c12 | 5.91 µM | > 100 µM | 20.3 µM | > 100 µM | 47.4 µM | > 100 µM | 1.51 µM | > 100 µM | 7.94 µM | 87 µM | 2 µM | 46.1 µM | 3.17 µM | > 56.7 µM | 61 µM | > 100 µM | 46.2 µM | > 100 µM | > 47 µM | > 100 µM
